# Data: PubChem BioAssay (NCI)
#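 Exposure lasted 48 hours, with cells grown in 96-well plates and compounds tested at five concentrations. GI50 = concentration required for 50% inhibition of growth. TGI is the concentration that stops growth completely.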
# Assays:
# Assay in all cases: NCI anticancer screen, dose series, 48 h
# [1] = tested on: 786-0 renal
# [2] = tested on: A498 renal
# [3] = tested on: A549 NSCLC
# [4] = tested on: ACHN renal
# [5] = tested on: BT-549 breast
# [6] = tested on: CAKI-1 renal
# [7] = tested on: CCRF-CEM leukemia
# [8] = tested on: COLO 205 colon
# [9] = tested on: DU-145 prostate
# [10] = tested on: EKVX NSCLC
# [11] = tested on: HCC-2998 colon
# [12] = tested on: HCT-116 colon
# [13] = tested on: HCT-15 colon
# [14] = tested on: HL-60(TB) leukemia
# [15] = tested on: HOP-62 NSCLC
# [16] = tested on: HOP-92 NSCLC
# [17] = tested on: HS 578T breast
# [18] = tested on: HT29 colon
# [19] = tested on: IGROV1 ovarian
# [20] = tested on: K-562 leukemia
# [21] = tested on: KM12 colon
# [22] = tested on: LOX IMVI melanoma
# [23] = tested on: M14 melanoma
# [24] = tested on: MALME-3M melanoma
# [25] = tested on: MCF7 breast
# [26] = tested on: MDA-MB-231 breast
# [27] = tested on: MDA-MB-435
# [28] = tested on: MDA-MB-468 breast
# [29] = tested on: MOLT-4 leukemia
# [30] = tested on: NCI-H226 lung
# [31] = tested on: NCI-H23 lung
# [32] = tested on: NCI-H460 lung
# [33] = tested on: NCI-H522 lung
# [34] = tested on: NCI/ADR-RES ovarian
# [35] = tested on: OVCAR-3 ovarian
# [36] = tested on: OVCAR-4 ovarian
# [37] = tested on: OVCAR-5 ovarian
# [38] = tested on: OVCAR-8 ovarian
# [39] = tested on: PC-3 prostate
# [40] = tested on: RPMI-8226 leukemia
# [41] = tested on: RXF 393 renal
# [42] = tested on: SF-268 CNS
# [43] = tested on: SF-295 CNS
# [44] = tested on: SF-539 CNS
# [45] = tested on: SK-MEL-2 melanoma
# [46] = tested on: SK-MEL-28 melanoma
# [47] = tested on: SK-MEL-5 melanoma
# [48] = tested on: SK-OV-3 ovarian
# [49] = tested on: SN12C renal
# [50] = tested on: SNB-19 CNS
# [51] = tested on: SR leukemia
# [52] = tested on: SW-620 colon
# [53] = tested on: T-47D breast
# [54] = tested on: TK-10 renal
# [55] = tested on: U251 CNS
# [56] = tested on: UACC-257 melanoma
# [57] = tested on: UACC-62 melanoma
# [58] = tested on: UO-31 renal
# [59] = tested on: SNB-75 CNS
compound,measurement,setting,value
COc1ccc(C(=O)/C=C/c2c(F)cccc2Cl)cc1S(N)(=O)=O,GI50,[1],2990 nM
same,TGI,[1],10500 nM
same,GI50,[2],15900 nM
same,TGI,[2],32000 nM
same,GI50,[3],2380 nM
same,TGI,[3],10100 nM
same,GI50,[4],2800 nM
same,TGI,[4],8330 nM
same,GI50,[5],2720 nM
same,TGI,[5],8630 nM
same,GI50,[6],4070 nM
same,TGI,[6],13900 nM
same,GI50,[7],2590 nM
same,TGI,[7],6780 nM
same,GI50,[8],2170 nM
same,TGI,[8],3950 nM
same,GI50,[9],3300 nM
same,TGI,[9],12500 nM
same,GI50,[10],4120 nM
same,TGI,[10],14400 nM
same,GI50,[11],2780 nM
same,TGI,[11],10300 nM
same,GI50,[12],1760 nM
same,TGI,[12],3780 nM
same,GI50,[13],1350 nM
same,TGI,[13],3380 nM
same,GI50,[14],1650 nM
same,TGI,[14],6460 nM
same,GI50,[15],3010 nM
same,TGI,[15],9420 nM
same,GI50,[16],3580 nM
same,TGI,[16],15300 nM
same,GI50,[17],6430 nM
same,TGI,[17],> 100000 nM
same,GI50,[18],1910 nM
same,TGI,[18],3810 nM
same,GI50,[19],2800 nM
same,TGI,[19],10400 nM
same,GI50,[20],2820 nM
same,TGI,[20],14200 nM
same,GI50,[21],2590 nM
same,TGI,[21],6660 nM
same,GI50,[22],1610 nM
same,TGI,[22],3340 nM
same,GI50,[23],2620 nM
same,TGI,[23],10600 nM
same,GI50,[24],3990 nM
same,TGI,[24],16400 nM
same,GI50,[25],2190 nM
same,TGI,[25],11200 nM
same,GI50,[26],2880 nM
same,TGI,[26],7710 nM
same,GI50,[27],3390 nM
same,TGI,[27],15700 nM
same,GI50,[28],1470 nM
same,TGI,[28],4120 nM
same,GI50,[29],2410 nM
same,TGI,[29],7580 nM
same,GI50,[30],3230 nM
same,TGI,[30],12300 nM
same,GI50,[31],3040 nM
same,TGI,[31],10800 nM
same,GI50,[32],3010 nM
same,TGI,[32],> 100000 nM
same,GI50,[33],1670 nM
same,TGI,[33],3510 nM
same,GI50,[34],2830 nM
same,TGI,[34],9240 nM
same,GI50,[35],2530 nM
same,TGI,[35],8400 nM
same,GI50,[36],4130 nM
same,TGI,[36],20500 nM
same,GI50,[37],3020 nM
same,TGI,[37],11100 nM
same,GI50,[38],3010 nM
same,TGI,[38],12300 nM
same,GI50,[39],4670 nM
same,TGI,[39],19700 nM
same,GI50,[40],2570 nM
same,TGI,[40],8000 nM
same,GI50,[41],1740 nM
same,TGI,[41],4560 nM
same,GI50,[42],3330 nM
same,TGI,[42],16700 nM
same,GI50,[43],3100 nM
same,TGI,[43],11000 nM
same,GI50,[44],2010 nM
same,TGI,[44],4220 nM
same,GI50,[45],3960 nM
same,TGI,[45],16400 nM
same,GI50,[46],3600 nM
same,TGI,[46],14000 nM
same,GI50,[47],3060 nM
same,TGI,[47],12300 nM
same,GI50,[48],5360 nM
same,TGI,[48],17100 nM
same,GI50,[49],2590 nM
same,TGI,[49],10500 nM
same,GI50,[50],4240 nM
same,TGI,[50],15200 nM
same,GI50,[51],1410 nM
same,TGI,[51],5610 nM
same,GI50,[52],3610 nM
same,TGI,[52],20700 nM
same,GI50,[53],2420 nM
same,TGI,[53],9530 nM
same,GI50,[54],3530 nM
same,TGI,[54],9790 nM
same,GI50,[55],1730 nM
same,TGI,[55],3690 nM
same,GI50,[56],2990 nM
same,TGI,[56],16600 nM
same,GI50,[57],2020 nM
same,TGI,[57],6550 nM
same,GI50,[58],2940 nM
same,TGI,[58],11900 nM
CC1=C2C(=C[C@@](C)(COP(=O)(Oc3ccccc3)Oc3ccccc3)[C@@H]2O)C(=O)[C@@](C)(O)C12CC2,GI50,[1],284 nM
same,TGI,[1],857 nM
same,GI50,[2],1150 nM
same,TGI,[2],4090 nM
same,GI50,[3],781 nM
same,TGI,[3],3290 nM
same,GI50,[4],232 nM
same,TGI,[4],686 nM
same,GI50,[5],211 nM
same,TGI,[5],614 nM
same,GI50,[6],289 nM
same,TGI,[6],2170 nM
same,GI50,[7],1880 nM
same,TGI,[7],> 39800 nM
same,GI50,[8],530 nM
same,TGI,[8],1200 nM
same,GI50,[9],332 nM
same,TGI,[9],1340 nM
same,GI50,[10],641 nM
same,TGI,[10],1800 nM
same,GI50,[11],216 nM
same,TGI,[11],639 nM
same,GI50,[13],208 nM
same,TGI,[13],875 nM
same,GI50,[14],213 nM
same,TGI,[14],1280 nM
same,GI50,[15],408 nM
same,TGI,[15],1280 nM
same,GI50,[16],574 nM
same,TGI,[16],1580 nM
same,GI50,[17],1010 nM
same,TGI,[17],4460 nM
same,GI50,[18],201 nM
same,TGI,[18],705 nM
same,GI50,[19],399 nM
same,TGI,[19],1240 nM
same,GI50,[20],1560 nM
same,TGI,[20],> 69500 nM
same,GI50,[21],628 nM
same,TGI,[21],5820 nM
same,GI50,[22],218 nM
same,TGI,[22],703 nM
same,GI50,[23],551 nM
same,TGI,[23],1310 nM
same,GI50,[24],382 nM
same,TGI,[24],1000 nM
same,GI50,[25],141 nM
same,TGI,[25],4690 nM
same,GI50,[26],351 nM
same,TGI,[26],1030 nM
same,GI50,[27],637 nM
same,TGI,[27],2060 nM
same,GI50,[28],147 nM
same,TGI,[28],503 nM
same,GI50,[29],439 nM
same,TGI,[29],14600 nM
same,GI50,[30],723 nM
same,TGI,[30],3840 nM
same,GI50,[31],158 nM
same,TGI,[31],384 nM
same,GI50,[32],234 nM
same,TGI,[32],744 nM
same,GI50,[33],223 nM
same,TGI,[33],655 nM
same,GI50,[34],236 nM
same,TGI,[34],778 nM
same,GI50,[35],286 nM
same,TGI,[35],1080 nM
same,GI50,[36],355 nM
same,TGI,[36],1470 nM
same,GI50,[37],359 nM
same,TGI,[37],1340 nM
same,GI50,[38],286 nM
same,TGI,[38],1090 nM
same,GI50,[39],397 nM
same,TGI,[39],2340 nM
same,GI50,[40],4560 nM
same,TGI,[40],38900 nM
same,GI50,[41],188 nM
same,TGI,[41],493 nM
same,GI50,[42],350 nM
same,TGI,[42],1500 nM
same,GI50,[43],294 nM
same,TGI,[43],1230 nM
same,GI50,[44],327 nM
same,TGI,[44],886 nM
same,GI50,[45],246 nM
same,TGI,[45],596 nM
same,GI50,[46],681 nM
same,TGI,[46],1690 nM
same,GI50,[47],219 nM
same,TGI,[47],609 nM
same,GI50,[48],357 nM
same,TGI,[48],1310 nM
same,GI50,[49],521 nM
same,TGI,[49],1550 nM
same,GI50,[50],630 nM
same,TGI,[50],4930 nM
same,GI50,[59],477 nM
same,TGI,[59],1270 nM
same,GI50,[51],402 nM
same,TGI,[51],25100 nM
same,GI50,[52],1700 nM
same,TGI,[52],18300 nM
same,GI50,[53],946 nM
same,TGI,[53],5190 nM
same,GI50,[54],854 nM
same,TGI,[54],3090 nM
same,GI50,[55],249 nM
same,TGI,[55],1360 nM
same,GI50,[56],792 nM
same,TGI,[56],2310 nM
same,GI50,[57],312 nM
same,TGI,[57],804 nM
same,GI50,[58],460 nM
same,TGI,[58],1270 nM
